Among the data in patent US11439707B2, “Hypocrellin derivative substituted both in a peri-position and in 2-position by amino, preparation method, and application thereof” (priority 2017, dated 2022) are singlet oxygen yield, maximum absorption wavelength and molar extinction coefficient values, retold here.

Series [1] is described as follows: singlet oxygen efficiency test, reference rose bengal. It is filed as physicochemical.
Series [2] can be described thus: absorption spectrum (maximum absorption wavelength, molar extinction coefficient). It is filed as physicochemical.

For the compound `COc1c(NC2CCC(C(=O)O)C2)c2c(=O)cc(OC)c3c4c(OC)cc(=O)c5c(O)c(NC6CCC(C(=O)O)C6)c6c(c(c1C(C(C)=O)C(C)=C6)c23)c54` (stereo not drawn) [HB-19b], in series [1], the singlet oxygen yield is 22%. For the same compound, in series [2], the maximum absorption wavelength turned out to be 620 nm and the molar extinction coefficient is listed as 25,000 M^−1cm^−1.

For the compound `COCCOCCC(=O)OCCOCCNc1c2c3c4c(c(OC)c(=O)c5c(O)cc(OC)c(c6c(OC)cc(NCCOCCOC(=O)CCOCCOC)c(c1=O)c63)c54)CC(C)=C2` [HC-1c-PEG1], the singlet oxygen yield in series [1] worked out at 34%. In series [2], the maximum absorption wavelength turned out to be 625 nm and the molar extinction coefficient is recorded as 32,500 M^−1cm^−1.

Compound `COC(=O)C(CO)Nc1c(O)c2c(=O)cc(OC)c3c4c(OC)cc(=O)c5c(NC(CO)C(=O)OC)c(OC)c6c(c(c1C=C(C)C6C(C)=O)c23)c54` (stereo not drawn) [HB-24b] yielded a singlet oxygen yield in series [1] of 20%. Besides, in series [2], the maximum absorption wavelength is given as 621 nm and the molar extinction coefficient was 21,500 M^−1cm^−1.

Turning to `COc1c2c3c4c(c(NCCOCCO)c(=O)c5c(O)cc(OC)c(c6c(OC)cc(NCCOCCO)c(c1=O)c63)c54)C=C(C)C2` [HC-1d], in series [1], the singlet oxygen yield amounted to 32%. In series [2], the maximum absorption wavelength is on record as 626 nm and the molar extinction coefficient is reported as 28,500 M^−1cm^−1.

For `COc1c2c3c4c(c(NCCC(=O)O)c(=O)c5c(NCCC(=O)O)cc(OC)c(c6c(OC)cc(O)c(c1=O)c63)c54)C=C(C)C2C(C)=O` (stereo not drawn) [HB-10c], the singlet oxygen yield in series [1] came out at 38%. In series [2], the maximum absorption wavelength worked out at 622 nm and the molar extinction coefficient is given as 33,000 M^−1cm^−1.

`COCCOCCOCCOCCOCCOCCOCCC(=O)OC1CCC(Nc2c(O)c3c(=O)cc(OC)c4c5c(OC)cc(=O)c6c(NC7CCC(OC(=O)CCOCCOCCOCCOCCOCCOCCOC)C7)c(OC)c7c(c(c2C=C(C)C7C(C)=O)c34)c65)C1` (stereo not drawn) [HB-20b-PEG6] registered a singlet oxygen yield in series [1] of 28%. Further, in series [2], the maximum absorption wavelength is given as 624 nm and the molar extinction coefficient is given as 31,000 M^−1cm^−1.

Compound `COCCOCCOCCOCCOCCOCCOCCOCCOCCOCCOCCOCCOCCOCCOCCOCCOC(=O)C1CCC(CNc2c3c4c5c(c(OC)c(=O)c6c(NCC7CCC(C(=O)OCCOCCOCCOCCOCCOCCOCCOCCOCCOCCOCCOCCOCCOCCOCCOCCOC)CC7)cc(OC)c(c7c(OC)cc(O)c(c2=O)c74)c65)CC(C)=C3)CC1` (stereo not drawn) [HC-13d-PEG16] came in with a singlet oxygen yield in series [1] of 30%. In addition, in series [2], the maximum absorption wavelength turned out to be 625 nm and the molar extinction coefficient was 31,500 M^−1cm^−1.

Turning to `COCCOCCOCCOCCOCCOCCOCCN1C(=O)CN(C(=O)OCCNc2c(O)c3c(=O)cc(OC)c4c5c(OC)cc(=O)c6c(NCCOC(=O)N7CC(=O)N(CCOCCOCCOCCOCCOCCOCCOC)C(=O)C7)c(OC)c7c(c(c2C=C(C)C7C(C)=O)c34)c65)CC1=O` (stereo not drawn) [HB-40b-PEG6], the singlet oxygen yield in series [1] is on record as 34%. In series [2], the maximum absorption wavelength is given as 624 nm and the molar extinction coefficient is 31,000 M^−1cm^−1.

For the compound `COCCOCCOCCOCCOCCOCCOCCOCCOCCNC(=O)C1CCC(CNc2c3c4c5c(c(OC)c(=O)c6c(NCC7CCC(C(=O)NCCOCCOCCOCCOCCOCCOCCOCCOCCOC)CC7)cc(OC)c(c7c(OC)cc(O)c(c2=O)c74)c65)CC(C)=C3)CC1` (stereo not drawn) [HC-13d-NH-PEG8], the singlet oxygen yield in series [1] was 30%. Further, in series [2], the maximum absorption wavelength came to 625 nm and the molar extinction coefficient is 32,500 M^−1cm^−1.

In the case of `COCCOCCOCCOCCOCCOCCOCCOCCOCCOCCOCCOCCOCCC(=O)OC1CCC(Nc2c3c4c5c(c(OC)c(=O)c6c(O)cc(OC)c(c7c(OC)cc(NC8CCC(OC(=O)CCOCCOCCOCCOCCOCCOCCOCCOCCOCCOCCOCCOCCOC)C8)c(c2=O)c74)c65)C(C(C)=O)C(C)=C3)C1` (stereo not drawn) [HB-20c-PEG12], in series [1], the singlet oxygen yield is given as 34%. Besides, in series [2], the maximum absorption wavelength is 632 nm and the molar extinction coefficient was 32,500 M^−1cm^−1.

Regarding `COc1c(O)c2c(=O)cc(OC)c3c4c(OC)cc(=O)c5c(NCC(=O)O)c(NCC(=O)O)c6c(c(c1CC(C)=C6)c23)c54` [HC-7a], the singlet oxygen yield in series [1] is given as 28%. In addition, in series [2], the maximum absorption wavelength came out at 620 nm and the molar extinction coefficient is on record as 27,500 M^−1cm^−1.

In the case of `COCCOCCNC(=O)C1CCC(CNc2c(NCC3CCC(C(=O)NCCOCCOC)CC3)c3c(=O)cc(OC)c4c5c(OC)cc(=O)c6c(O)c(OC)c7c(c(c2C=C(C)C7C(C)=O)c34)c65)CC1` (stereo not drawn) [HB-13a-NH-PEG1], the singlet oxygen yield in series [1] is listed as 32%. Moreover, in series [2], the maximum absorption wavelength worked out at 624 nm and the molar extinction coefficient is reported as 31,000 M^−1cm^−1.

For `COCCOCCOCCOCCOCCOCCOC(=O)CCCNc1c2c3c4c(c(OC)c(=O)c5c(NCCCC(=O)OCCOCCOCCOCCOCCOCCOC)cc(OC)c(c6c(OC)cc(O)c(c1=O)c63)c54)CC(C)=C2` [HC-8d-PEG6], the singlet oxygen yield in series [1] came out at 32%. Further, in series [2], the maximum absorption wavelength was 624 nm and the molar extinction coefficient was 31,500 M^−1cm^−1.

As for `CCNc1c2c3c4c(c(OC)c(=O)c5c(NC6CCCC6)cc(OC)c(c6c(OC)c(SCCO)c(O)c(c1=O)c36)c54)C(C(C)=O)C(C)=C2` (stereo not drawn) [HB-S-44d], the singlet oxygen yield in series [1] amounted to 21%. In addition, in series [2], the maximum absorption wavelength was found to be 622 nm and the molar extinction coefficient is recorded as 21,500 M^−1cm^−1.

Consider `COc1c(O)c2c(=O)cc(OC)c3c4c(OC)cc(=O)c5c(NCCC(=O)NCCN6CCOCC6)c(NCCC(=O)NCCN6CCOCC6)c6c(c(c1C(C(C)=O)C(C)=C6)c23)c54` (stereo not drawn) [HB-42a], for which, in series [1], the singlet oxygen yield came out at 33%. Further, in series [2], the maximum absorption wavelength is listed as 620 nm and the molar extinction coefficient is on record as 32,500 M^−1cm^−1.

Compound `COc1c(O)c2c(=O)cc(OC)c3c4c(OC)cc(=O)c5c(NCCNCCOCCO)c(NCCNCCOCCO)c6c(c(c1C(C(C)=O)C(C)=C6)c23)c54` (stereo not drawn) [HB-5a-PEG1] showed a singlet oxygen yield in series [1] of 28%. In series [2], the maximum absorption wavelength turned out to be 622 nm and the molar extinction coefficient is 29,500 M^−1cm^−1.

In series [1], `CCNc1c(NC2CCCC2)c2c(=O)cc(OC)c3c4c(OC)cc(=O)c5c(O)c(OC)c6c(c(c1C=C(C)C6C(C)=O)c23)c54` (stereo not drawn) [HB-44a] showed a singlet oxygen yield of 20%. Moreover, in series [2], the maximum absorption wavelength amounted to 628 nm and the molar extinction coefficient is reported as 21,500 M^−1cm^−1.

`COCCOCCOCCOCCOCCOCCOCCC(=O)OCCOCCNc1c(O)c2c(=O)cc(OC)c3c4c(OC)cc(=O)c5c(NCCOCCOC(=O)CCOCCOCCOCCOCCOCCOCCOC)c(OC)c6c(c(c1C=C(C)C6)c23)c54` [HC-1b-PEG6] had a singlet oxygen yield in series [1] of 30%. In series [2], the maximum absorption wavelength is 624 nm and the molar extinction coefficient is listed as 30,000 M^−1cm^−1.

In series [1], `COCCOCCOCCOCCOCCOCCOCCOCCOCCOCCOCCOCCOCCC(=O)OCCNc1c2c3c4c(c(OC)c(=O)c5c(O)cc(OC)c(c6c(OC)cc(NCCOC(=O)CCOCCOCCOCCOCCOCCOCCOCCOCCOCCOCCOCCOCCOC)c(c1=O)c63)c54)C(C(C)=O)C(C)=C2` (stereo not drawn) [HB-2c-PEG12] yielded a singlet oxygen yield of 36%. Further, in series [2], the maximum absorption wavelength came out at 626 nm and the molar extinction coefficient is 32,500 M^−1cm^−1.

Regarding `COc1c(O)c2c(=O)cc(OC)c3c4c(OC)cc(=O)c5c(NC6CCCC(C(=O)O)C6)c(NC6CCCC(C(=O)O)C6)c6c(c(c1C(C(C)=O)C(C)=C6)c23)c54` (stereo not drawn) [HB-15a], the singlet oxygen yield in series [1] is 25%. For the same compound, in series [2], the maximum absorption wavelength amounted to 625 nm and the molar extinction coefficient is listed as 27,000 M^−1cm^−1.

In series [1], `COc1c(O)c2c(=O)cc(OC)c3c4c(OC)cc(=O)c5c(NCCCC(=O)O)c(NCC(=O)O)c6c(c(c1C(C(C)=O)C(C)=C6)c23)c54` (stereo not drawn) [HB-43a] displayed a singlet oxygen yield of 28%. In series [2], the maximum absorption wavelength is recorded as 613 nm and the molar extinction coefficient is 26,500 M^−1cm^−1.

Turning to `COc1c2c3c4c(c(NCc5ccccn5)c(=O)c5c(NCc6ccccn6)cc(OC)c(c6c(OC)cc(O)c(c1=O)c63)c54)C=C(C)C2C(C)=O` (stereo not drawn) [HB-38c], the singlet oxygen yield in series [1] is on record as 18%. In addition, in series [2], the maximum absorption wavelength was 628 nm and the molar extinction coefficient is listed as 20,000 M^−1cm^−1.

`COCCOCCOCCOCCOCCOCCOC(=O)C1CCCC(Nc2c3c4c5c(c(OC)c(=O)c6c(NC7CCCC(C(=O)OCCOCCOCCOCCOCCOCCOC)C7)cc(OC)c(c7c(OC)cc(O)c(c2=O)c74)c65)C(C(C)=O)C(C)=C3)C1` (stereo not drawn) [HB-15d-PEG6] returned a singlet oxygen yield in series [1] of 32%. Moreover, in series [2], the maximum absorption wavelength is 630 nm and the molar extinction coefficient is on record as 32,500 M^−1cm^−1.

For the compound `COc1c2c3c4c(c(NCC5CCC(C(=O)NCCCCS(=O)(=O)O)CC5)c(=O)c5c(O)cc(OC)c(c6c(OC)cc(NCC7CCC(C(=O)NCCCCS(=O)(=O)O)CC7)c(c1=O)c63)c54)C=C(C)C2` (stereo not drawn) [HC-13d-C4-SO3H], the singlet oxygen yield in series [1] was 30%. For the same compound, in series [2], the maximum absorption wavelength came to 624 nm and the molar extinction coefficient is given as 31,000 M^−1cm^−1.

Compound `COc1c2c3c4c(c(NCCCC(=O)O)c(=O)c5c(O)cc(OC)c(c6c(OC)cc(NCCCC(=O)O)c(c1=O)c63)c54)C=C(C)C2` [HC-8d] returned a singlet oxygen yield in series [1] of 26%. For the same compound, in series [2], the maximum absorption wavelength was 623 nm and the molar extinction coefficient is 27,000 M^−1cm^−1.

For `COc1c2c3c4c(c(NC5CCC(O)CC5)c(=O)c5c(O)cc(OC)c(c6c(OC)cc(NC7CCC(O)CC7)c(c1=O)c63)c54)C=C(C)C2C(C)=O` (stereo not drawn) [HB-17d], the singlet oxygen yield in series [1] is 22%. Moreover, in series [2], the maximum absorption wavelength turned out to be 624 nm and the molar extinction coefficient was 25,000 M^−1cm^−1.

In series [1], `COc1c2c3c4c(c(NCC5CCC(C(=O)NCCCCCC[P+](c6ccccc6)(c6ccccc6)c6ccccc6)CC5)c(=O)c5c(NCC6CCC(C(=O)NCCCCCC[P+](c7ccccc7)(c7ccccc7)c7ccccc7)CC6)cc(OC)c(c6c(OC)cc(O)c(c1=O)c63)c54)C=C(C)C2` (stereo not drawn) [HC-13c-NH—C6-PPh3+] had a singlet oxygen yield of 38%. Further, in series [2], the maximum absorption wavelength is recorded as 632 nm and the molar extinction coefficient is reported as 33,500 M^−1cm^−1.

In series [1], `COc1c2c3c4c(c(NCc5cccc[n+]5C)c(=O)c5c(NCc6cccc[n+]6C)cc(OC)c(c6c(OC)cc(O)c(c1=O)c63)c54)C=C(C)C2C(C)=O` (stereo not drawn) [HB-38c-N^+] showed a singlet oxygen yield of 21%. Further, in series [2], the maximum absorption wavelength is listed as 622 nm and the molar extinction coefficient is 22,500 M^−1cm^−1.
